Laboratory results from patent US9309231B2, “Bridged ring compounds as hepatitis C virus (HCV) inhibitors and pharmaceutical applications thereof” (SUNSHINE LAKE PHARMA CO., LTD, priority 2012, dated 2016).

Legend:
[1] = test system: HCV GT1a replicon cells; assay: HCV replicon assay, GT1a replicon cells; assay type: cell-based; conditions: Hepatitis C virus, 72 hours incubation, luciferase reporter or NEO gene qPCR readout, read-out: EC50 against HCV 1a genotype
Protocol: (§1) An HCV Replicon assay was utilized in the present disclosure, and was prepared, developed and validated as described in Science, 1999, 285 (5424), 110-3 and J. Virol., 2003, 77 (5), 3007-19.
(§2) HCV GT1a, GT1b and GT2a replicon cells were used to test the currently described compound series as well as wild-type cells HCV 1b and resistant cells Y^93H, L31F, P32L and I302V. GT1a and CT1b are HCV Replicon System which is transfected HCV 1a, 1b genotype respectively.
(§3) 1. Testing EC50 of the Compounds by Luciferase Assay
(§4) The GT1b cells and GT1a cells were seeded into 96-well plates (8,000 cells in 125 μl/well) respectively; each compound was diluted to desired concentration using 5-fold serial dilutions protocol, 10 dose in duplicate, and added to wells with POD™ 810 Plate Assembler. The final concentration of DMSO was 0.5%; the plates were incubated in a CO2 incubator for 72 hours; after that, 40 μl of Luciferase assay substrate (Promega Bright-Glo) was added to each well, and detected by a chemiluminescence detection system (Topcount Microplate Scintillation and Luminescence Counter) 5 minutes later; data analysis.
(§5) 2. Testing EC50 of the Compounds by Detecting Antibiotic G418 Resistance Gene NEO Gene
(§6) The GT1b cells and GT1a cells were seeded into 96-well plates (8,000 cells in 125 μl/well) respectively; each compound was diluted to desired concentration using 5-fold serial dilutions protocol, 10 dose in duplicate, and added to wells with POD™ 810 Plate Assembler., the final concentration of DMSO was 0.5%; the cells were incubated in a CO2 incubator for 72 hours; quantitative PCR. • Sample preparation: the supernatant was removed, 100 μl of FCW buffer solution was added to each well, washed carefully and discarded the solution; 50 μl of lysate FCP was added to each well, the cells was lysed as PCR template and diluted with DEPC water. • Quantitative PCR: preparation of reaction mixture according to PCR system; the reaction mixture was dispensed into a 384-well PCR reaction plate (specially for quantitative); and a standard template which was diluted in proportion was distributed into the plate; and the sample template was distributed into the plate; then the 384-well plate was sealed with closure plate membrane; the […] PCR machine was operated by procedures; data analysis.
(§7) 3. Data Processing: The EC50 Values of Compounds were Analyzed by GraphPad Prism Software.

[2] = test system: HCV GT1b replicon cells; assay: HCV replicon assay, GT1b replicon cells; assay type: cell-based; conditions: Hepatitis C virus, 72 hours incubation, luciferase reporter or NEO gene qPCR readout, read-out: EC50 against HCV 1b genotype
Protocol: as §1, §2, §3, §4, §5, §6, §7

Row | Compound | EC50 [1] [nM] | EC50 [2] [nM]
1 | COC(=O)N[C@H](C(=O)N1CCC[C@H]1c1ncc(-c2ccc(-c3ccc(-c4cnc([C@@H]5CCCN5C(=O)[C@@H](NC(=O)OC)C(C)C)[nH]4)c4c3C3CCC4C3)cc2)[nH]1)C(C)C (stereo partly shown) [Example 18] | 0.138 | 0.014
2 | COC(=O)N[C@H](C(=O)N1CCCC1c1ncc(C#Cc2ccc(C#Cc3cnc([C@@H]4CCCN4C(=O)[C@@H](NC(=O)OC)C(C)C)[nH]3)c3c2C2CCC3C2)[nH]1)C(C)C (stereo partly shown) [Example 19] | 0.087 | 0.026
3 | COC(=O)N[C@H](C(=O)N1C[C@@H](C)C[C@H]1c1ncc(-c2ccc(-c3ccc(-c4cnc([C@@H]5C[C@H](C)CN5C(=O)[C@@H](NC(=O)OC)C(C)C)[nH]4)c4c3C3CCC4C3)cc2)[nH]1)C(C)C (stereo partly shown) [Example 20] | < 0.001 | 0.045
4 | COC(=O)N[C@H](C(=O)N1CCC[C@H]1c1ncc(-c2ccc(-c3ccc(-c4ccc5nc([C@@H]6CCCN6C(=O)[C@@H](NC(=O)OC)C(C)C)[nH]c5c4)c4c3C3CCC4CC3)cc2)[nH]1)C(C)C [Example 21] | 0.093 | 0.013
5 | COC(=O)N[C@H](C(=O)N1CCC[C@H]1c1ncc(-c2ccc(-c3ccc(-c4cnc([C@@H]5CCCN5C(=O)[C@@H](NC(=O)OC)C(C)C)[nH]4)c4c3C3CCC4CC3)cc2)[nH]1)C(C)C [Example 22] | 11.4 | 0.004
6 | COC(=O)N[C@H](C(=O)N1CCC[C@H]1c1ncc(C#Cc2ccc(C#Cc3cnc([C@@H]4CCCN4C(=O)[C@@H](NC(=O)OC)C(C)C)[nH]3)c3c2C2CCC3N2C)[nH]1)C(C)C [Example 24] | 0.453 | 0.096
7 | COC(=O)N[C@H](C(=O)N1CCC[C@H]1c1nc2ccc(-c3ccc(-c4ccc5nc([C@@H]6CCCN6C(=O)[C@@H](NC(=O)OC)C(C)C)[nH]c5c4)c4c3C3CCC4N3C)cc2[nH]1)C(C)C [Example 25] | 0.083 | 0.032
8 | COC(=O)N[C@H](C(=O)N1CCC[C@H]1c1ncc(-c2ccc(-c3ccc(-c4cnc([C@@H]5CCCN5C(=O)[C@@H](NC(=O)OC)C(C)C)[nH]4)c4c3C3CCC4N3C)cc2)[nH]1)C(C)C (stereo partly shown) [Example 26] | 0.653 | 0.077
9 | CC[C@H](C)[C@H](NC(=O)OC)C(=O)N1CCC[C@H]1c1nc2ccc(-c3ccc(-c4ccc(-c5cnc([C@@H]6CCCN6C(=O)[C@@H](NC(=O)OC)C(C)C)[nH]5)cc4)c4c3C3CCC4N3C)cc2[nH]1 (stereo partly shown) [Example 28] | 0.063 | 0.015
10 | COC(=O)N[C@H](C(=O)N1CC(F)(F)CC1c1ncc(-c2ccc(-c3ccc(-c4cnc([C@@H]5CC(F)(F)CN5C(=O)[C@@H](NC(=O)OC)C(C)C)[nH]4)cc3)c3c2C2CCC3N2C)[nH]1)C(C)C (stereo partly shown) [Example 31] | 0.077 | 0.038
11 | COC(=O)N[C@H](C(=O)N1C[C@H](C)C[C@H]1c1ncc(-c2ccc(-c3ccc(-c4cnc([C@@H]5C[C@H](C)CN5C(=O)[C@@H](NC(=O)OC)C(C)C)[nH]4)c4c3C3CCC4N3C)cc2)[nH]1)C(C)C (stereo partly shown) [Example 33] | 0.038 | 0.009
12 | COC(=O)N[C@H](C(=O)N1CCC[C@H]1c1ncc(-c2ccc(-c3ccc(-c4ccc5nc([C@@H]6CCCN6C(=O)[C@@H](NC(=O)OC)C(C)C)[nH]c5c4)c4c3C3CCC4N3C)nc2)[nH]1)C(C)C (stereo partly shown) [Example 34] | 0.054 | 0.006
13 | COC(=O)N[C@@H](C)C(=O)N1CCCC[C@H]1c1ncc(-c2ccc(-c3ccc(-c4ccc5nc([C@@H]6CCCCN6C(=O)[C@H](C)NC(=O)OC)[nH]c5c4)c4c3C3CCC4N3C)cc2)[nH]1 (stereo partly shown) [Example 35] | 0.103 | 0.017
14 | COC(=O)N[C@H](C(=O)N1CCC[C@H]1c1ncc(-c2ccc(-c3ccc(-c4ccc5nc([C@@H]6CCCN6C(=O)[C@@H](NC(=O)OC)C(C)C)[nH]c5c4)c4c3C3CCC4C3)s2)[nH]1)C(C)C (stereo partly shown) [Example 38] | 0.064 | 0.017
15 | COC(=O)N[C@H](C(=O)N1CCC[C@H]1c1ncc(-c2ccc(-c3ccc(-c4cnc([C@@H]5CCCN5C(=O)[C@@H](NC(=O)OC)C(C)C)[nH]4)c4c3C3CCC4C3)s2)[nH]1)C(C)C (stereo partly shown) [Example 40] | 0.083 | 0.012
16 | COC(=O)N[C@H](C(=O)N1CCC[C@H]1c1ncc(-c2ccc(-c3ccc(-c4ccc5nc([C@@H]6CCCN6C(=O)[C@@H](NC(=O)OC)C(C)C)[nH]c5c4)c4c3C3CCC4C3)nc2)[nH]1)C(C)C (stereo partly shown) [Example 41] | 0.067 | 0.01
17 | COC(=O)N[C@H](C(=O)N1CCC[C@H]1C(=O)Nc1ccc(-c2ccc(-c3ccc(NC(=O)[C@@H]4CCCN4C(=O)[C@@H](NC(=O)OC)C(C)C)cc3)c3c2C2CCC3C2)cc1)C(C)C [Example 43] | 1.13 | 0.073
18 | COC(=O)N[C@H](C(=O)N1C2CC2C[C@H]1c1ncc(-c2ccc(-c3ccc(-c4ccc(-c5cnc([C@@H]6NC7CC7N6C(=O)[C@@H](NC(=O)OC)C(C)C)[nH]5)cc4)c4c3C3CCC4C3)cc2)[nH]1)C(C)C (stereo partly shown) [Example 45] | 3.07 | 0.113
19 | COC(=O)N[C@H](C(=O)N1CCS[C@H]1c1ncc(-c2ccc(-c3ccc(-c4cnc([C@@H]5SCCN5C(=O)[C@@H](NC(=O)OC)C(C)C)[nH]4)c4c3C3CCC4C3)cc2)[nH]1)C(C)C (stereo partly shown) [Example 46] | 0.439 | 0.035
20 | COC(=O)N[C@H](C(=O)N1CCC[C@H]1c1ncc(-c2ccc(-c3ccc(-c4ccc5nc([C@@H]6CCCN6C(=O)[C@@H](NC(=O)OC)C(C)C)[nH]c5c4)cc3)c3c2C2CCC3C2)[nH]1)C(C)C (stereo partly shown) [Example 47] | 0.053 | 0.013
21 | COC(=O)N[C@H](C(=O)N1CCC[C@H]1c1ncc(-c2ccc3cc(-c4ccc(-c5cnc([C@@H]6CCCN6C(=O)[C@@H](NC(=O)OC)C(C)C)[nH]5)c5c4C4CCC5C4)ccc3c2)[nH]1)C(C)C (stereo partly shown) [Example 48] | 0.043 | 0.029
22 | COC(=O)N[C@H](C(=O)N1CCC[C@H]1C(=O)Nc1ccc(-c2ccc(-c3ccc(-c4cnc([C@@H]5CCCN5C(=O)[C@@H](NC(=O)OC)C(C)C)[nH]4)cc3)c3c2C2CCC3C2)cc1)C(C)C (stereo partly shown) [Example 49] | 0.855 | 0.083
23 | COC(=O)N[C@H](C(=O)N1C[C@H](C)C[C@H]1c1ncc(-c2ccc(-c3ccc(-c4cnc([C@@H]5C[C@@H](C)CN5C(=O)[C@@H](NC(=O)OC)C(C)C)[nH]4)c4c3C3CCC4CC3)cc2)[nH]1)C(C)C [Example 59] | 0.037 | 0.008
24 | COC(=O)N[C@H](C(=O)N1CCCC1c1ncc(-c2ccc(-c3ccc(-c4cnc([C@@H]5CC6(CN5C(=O)[C@@H](NC(=O)OC)C(C)C)OCCO6)[nH]4)cc3)c3c2C2CCC3CC2)[nH]1)C(C)C (stereo partly shown) [Example 61] | 0.088 | 0.011
25 | COC(=O)N[C@H](C(=O)N1CCC[C@H]1c1ncc(-c2ccc(-c3ccc(-c4ccc(-c5cnc([C@@H]6CCCN6C(=O)[C@@H](NC(=O)OC)C(C)C)[nH]5)cc4)c4c3C3CCC4O3)cc2)[nH]1)C(C)C [Example 63] | 2.25 | 0.815
26 | COC(=O)N[C@H](C(=O)N1CCCC1c1nc2ccc(-c3ccc(-c4ccc5nc([C@@H]6CCCN6C(=O)[C@@H](NC(=O)OC)C(C)C)[nH]c5c4)c4c3C3CCC4O3)cc2[nH]1)C(C)C (stereo partly shown) [Example 65] | 0.064 | 0.013
27 | COC(=O)N[C@H](C(=O)N1CCC[C@H]1c1ncc(-c2ccc(-c3ccc(-c4cnc([C@@H]5CCCN5C(=O)[C@@H](NC(=O)OC)C(C)C)[nH]4)c4c3C3CCC4C3)c3c2CCC3)[nH]1)C(C)C (stereo partly shown) [Example 67] | 0.953 | 0.053
28 | [2H]C([2H])([2H])C([2H])(C([2H])([2H])[2H])[C@]([2H])(NC(=O)OC)C(=O)N1CCC[C@H]1c1ncc(-c2ccc(-c3ccc(-c4cnc([C@@H]5CC6CC6N5C(=O)[C@@]([2H])(NC(=O)OC)C([2H])(C([2H])([2H])[2H])C([2H])([2H])[2H])[nH]4)cc3)c3c2C2CCC3C2)[nH]1 (stereo partly shown) [Example 76] | 0.127 | 0.013
29 | [2H]C([2H])([2H])C([2H])(C([2H])([2H])[2H])[C@]([2H])(NC(=O)OC)C(=O)N1CCC[C@H]1c1ncc(-c2ccc(-c3ccc(-c4cnc([C@@H]5CCCN5C(=O)[C@@]([2H])(NC(=O)OC)C([2H])(C([2H])([2H])[2H])C([2H])([2H])[2H])[nH]4)c4c3C3CCC4C3)c(F)c2)[nH]1 (stereo partly shown) [Example 77] | 0.206 | 0.009
